# Test results as given in ChEMBL document CHEMBL6121046, “Discovery of Novel Hydrazide-Based HDAC3 Inhibitors as Epigenetic Immunomodulators for Cancer Immunotherapy” (J Med Chem, 2025).
# Experiments:
# [1] = system: Mus musculus; experiment: Immunomodulatory effect in C57BL/6 mouse allografted mouse MC38 cells assessed as increase in tumor infiltrating lymphocytes by measuring increase in CD4+ T helper cells in mouse blood in presence of NP19 PD-L1 inhibitor at 50 mg/kg, po treated 5 days after cell inoculation 19 th day by flow cytometry analysis (reference value: 0.27%); type: functional; conditions: time 15 day
# [2] = system: MC-38; experiment: Induction of mitochondrial membrane damage in mouse MC38 cells assessed as decrease in JC-1 aggregation by measuring red fluorescence at 1 uM measured after 48 hrs (reference value: 96.70%); type: functional; design: scale not given: the % may be the effect or the level left
# [3] = Toxicity in C57BL/6 mouse allografted with mouse MC38 cells assessed as alkaline phosphatase (AKP) level in serum at 50 mg/kg, po treated 5 days after cell inoculation 19 th day; type: organism-based; conditions: in vivo, 360 h, time 15 day
# [4] = Toxicity in C57BL/6 mouse allografted with mouse MC38 cells assessed as pathological changes in kidney at 50 mg/kg, po treated 5 days after cell inoculation 19 th day by hematoxylin and eosin analysis; type: organism-based; conditions: in vivo, 360 h, time 15 day
# [5] = Tmax in Sprague-Dawley rat at 20 mg/kg, po measured upto 12 hrs by LC-MS/MS analysis; type: ADME, organism-based; conditions: in vivo
structure (smiles),measurement,setting,value
CCCNNC(=O)c1ccc(CNC(=O)c2cnc(-c3ccc4occc4c3)[nH]2)cc1,Activity,[1],0.98%
same,Activity,[2],93.57%
same,Activity,[3],Non-toxic
same,Activity,[4],Non-toxic
same,Tmax,[5],52.8 min
